From ChEMBL document CHEMBL3414464, “Design, synthesis, and evaluation of NO-donor containing carbonic anhydrase inhibitors to lower intraocular pressure” (J Med Chem, 2015) come the findings set out here.

In brackets after ≈: the same amount, converted by molar mass.

The nature of data set [1]: Drug level in iris ciliary body of pigmented male Dutch-belted rabbit treated with 2 x 25 uL topical dose of formulated compound in each eye and measured 4 hrs post dose by LC-MS/MS method. Conditions: in vivo, topical_or_ocular; call rule not given here. Format: ADME, tissue-based, Oryctolagus cuniculus.
Data set [2] is described as follows: Drug level in aqueous humor of pigmented male Dutch-belted rabbit treated with 2 x 25 uL topical dose of formulated compound in each eye and measured 4 hrs post dose by LC-MS/MS method. Conditions: in vivo, topical_or_ocular. Format: ADME, tissue-based, Oryctolagus cuniculus.
Data set [3] deals with Oryctolagus cuniculus. Briefly: Reduction in intraocular pressure in pigmented male Dutch-belted rabbit assessed as intraocular pressure level at trough treated with 2% 2 x 25 uL topical dose of formulated compound in right eye and measured after 1 to 2 hrs by non-contact tonometry. Format: functional.
The nature of data set [4]: physchem.
Description: Solubility of the compound
The subject of data set [5] is Cynomolgus monkey. Briefly: Reduction in intraocular pressure unilaterally lasered ocular hypertensive cynomolgus monkey treated with 2% 2 x 25 uL topical dose of formulated compound in right eye and measured after 2 hrs by ocular hypertension primate tonometry. Format: functional, Macaca fascicularis.
Data set [6] deals with Cynomolgus monkey. Description: Reduction in intraocular pressure unilaterally lasered ocular hypertensive cynomolgus monkey treated with 1% 2 x 25 uL topical dose of formulated compound in right eye and measured after 2 hrs by ocular hypertension primate tonometry. Format: functional, Macaca fascicularis.
The nature of data set [7]: Drug level in iris ciliary body of pigmented male Dutch-belted rabbit assessed as compound formation treated with 2 x 25 uL topical dose of formulated (R)-3-(4-(Ethylamino)-1,1-dioxido-6-sulfamoyl-3,4-dihydro-2Hthieno[3,2-e][1,2]thiazin-2-yl)propyl nitrate in each eye and measured 4 hrs post dose by LC-MS/MS method. Format: ADME, tissue-based, Oryctolagus cuniculus. Particulars: in vivo, topical_or_ocular.

Data set [8] is described as follows: Drug level in aqueous humor of pigmented male Dutch-belted rabbit assessed as compound formation treated with 2 x 25 uL topical dose of formulated (R)-3-(4-(Ethylamino)-1,1-dioxido-6-sulfamoyl-3,4-dihydro-2Hthieno[3,2-e][1,2]thiazin-2-yl)propyl nitrate in each eye and measured 4 hrs post dose by LC-MS/MS method. Format: ADME, tissue-based, Oryctolagus cuniculus. Conditions: in vivo, topical_or_ocular.

A short description of data set [9]: Drug level in iris ciliary body of pigmented male Dutch-belted rabbit assessed as compound formation treated with 2 x 25 uL topical dose of formulated (4S,6S)-4-Ethylamino-6-(3-nitrooxy-propyl)-7,7-dioxo-4,5,6,7-tetrahydro-7lambda6-thieno[2,3-b]thiopyran-2-sulfonic acid amide in each eye and measured 4 hrs post dose by LC-MS/MS method. The format is ADME, tissue-based, Oryctolagus cuniculus. Particulars: in vivo, topical_or_ocular.

A short description of data set [10]: Drug level in aqueous humor of pigmented male Dutch-belted rabbit assessed as compound formation treated with 2 x 25 uL topical dose of formulated (4S,6S)-4-Ethylamino-6-(3-nitrooxy-propyl)-7,7-dioxo-4,5,6,7-tetrahydro-7lambda6-thieno[2,3-b]thiopyran-2-sulfonic acid amide in each eye and measured 4 hrs post dose by LC-MS/MS method. Format: ADME, tissue-based, Oryctolagus cuniculus. Particulars: in vivo, topical_or_ocular.

As usually defined, the solubility is the concentration that dissolves in the medium under given conditions. As to `CCN[C@H]1C[C@H](CCCO[N+](=O)[O-])S(=O)(=O)c2sc(S(N)(=O)=O)cc21`, the Drug uptake entry in [1] and in [2] was “Active” in each case. Further, the Activity in data set [3] stood at 5 mmHg. This compound also gave a solubility in data set [4] of 11300 µg/mL (≈ 27.3 mM).

On to `CCN[C@H]1CN(CCCO[N+](=O)[O-])S(=O)(=O)c2sc(S(N)(=O)=O)cc21`, for which the Drug uptake result in [1] and in data set [2] was “Active” in each case. The Activity in [3] is reported as 5 mmHg; in [5], 10.5 mmHg. For the same compound, in [4], the solubility was determined as 2200 µg/mL (≈ 5.31 mM).

With `CCN[C@H]1CN(CCCOC)S(=O)(=O)c2sc(S(N)(=O)=O)cc21` [BRINZOLAMIDE], in data set [6], the Activity worked out at 2 mmHg. In addition, in [4], the solubility came out at 500 µg/mL (≈ 1.3 mM).

With `CCN[C@H]1CN(CCCO)S(=O)(=O)c2sc(S(N)(=O)=O)cc21`, the Drug metabolism entry in [7] and in data set [8] was “metabolite_detected” in each case.

Take `CCN[C@H]1C[C@H](CCCO)S(=O)(=O)c2sc(S(N)(=O)=O)cc21`: the Drug metabolism entry in [9] and in data set [10] was “metabolite_detected” throughout.
